Test results as given in PMC9105972 (International Journal of Molecular Sciences, 2022).
Where two headings read alike, the source gives them in different places.

Key:
[1] = test system: AChE; settings: cited from earlier work
[2] = target: human brain AChE (HuAChE); settings: cited from earlier work
[3] = target: AChE from Torpedo californica (TcAChE); settings: cited from earlier work
[4] = test system: AChE; settings: in vivo, rats, mice and rabbits; cited from earlier work
[5] = target: T1, TcAChE (Tetronarce californica, UniProt P04058); experiment: Pre-steady-state analysis by global fitting of full progress curves (ENZO); type: biochemical, Torpedo californica
T1 construct: TcAChE was isolated and purified as previously described; from tissue
T1 sequence (P04058 22-586): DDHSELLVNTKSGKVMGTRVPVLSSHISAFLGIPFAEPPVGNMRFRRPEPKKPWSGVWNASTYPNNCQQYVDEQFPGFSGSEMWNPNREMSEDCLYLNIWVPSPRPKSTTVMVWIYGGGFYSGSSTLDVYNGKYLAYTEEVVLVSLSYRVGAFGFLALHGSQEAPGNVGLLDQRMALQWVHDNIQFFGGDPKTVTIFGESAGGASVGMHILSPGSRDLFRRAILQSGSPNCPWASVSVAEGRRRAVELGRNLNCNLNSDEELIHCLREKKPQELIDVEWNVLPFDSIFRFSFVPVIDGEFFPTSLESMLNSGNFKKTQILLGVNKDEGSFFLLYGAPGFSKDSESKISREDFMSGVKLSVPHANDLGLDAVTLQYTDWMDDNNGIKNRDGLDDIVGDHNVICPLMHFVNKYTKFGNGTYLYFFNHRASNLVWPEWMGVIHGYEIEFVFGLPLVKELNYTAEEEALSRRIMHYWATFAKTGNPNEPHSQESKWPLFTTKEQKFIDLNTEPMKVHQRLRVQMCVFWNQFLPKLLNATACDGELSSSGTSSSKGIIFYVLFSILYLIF

In the case of COc1ccc2c3c1O[C@H]1C[C@@H](O)C=C[C@@]31CCN(C)C2 [GAL, galantamine], the IC50 ([1]; highest of 15 BRENDA entries) is given as […], the IC50 ([1]; lowest of 15 BRENDA entries) is given as […] and the Ki ([2]; human brain AChE, competitive inhibition, 1976) is given as 52 nM. The Ki ([2]; recombinant form of HuAChE, 2003) was 520 nM, the Ki [3] was 200 nM and the “times weaker AChE inhibitor than donepezil” value [4] was 3–15 times.
In the case of C[N+](C)(C)CCSSc1ccc([N+](=O)[O-])c(C(=O)[O-])c1 [thiocholine-TNB, thiocholine-thionitrobenzoic acid], the Ki ([5]; TcAChE 200 pM, ATCh 35 µM, initial thiocholine-TNB 0 to ~150 µM, competitive, read-out: Ki for product inhibition) is reported as 21.5 ± 0.38 µM and the inhibition mechanism ([5]; fit of full progress curves) is reported as “competitive inhibition mechanism”.
